Results from patent publication US9725412B2, “Polymorphic forms of perindopril (L)-arginine and process for the preparation thereof” (Mylan Laboratories Limited, priority 2008, dated 2017).

Columns and labels:
[1] = Physical stability on drying and at humidity (RH >90%), by PXRD and Karl-Fisher; format: physicochemical
Procedure: The physical stability of the amorphous form, Form γ and literature Form α of Perindopril (L)-Arginine was determined by storing approximately 3.0 g of the sample a) at 50° C., b) at 70° C., c) at 100° C. and d) at 90% Relative Humidity (RH). […]

[2] = Transformation kinetics: solvent-mediated polymorph transformation (slurry in solvents, PXRD); format: physicochemical; conditions: for Result (polymorphic form by PXRD after slurry): stirred 12 hours; for Form conversion: stirred in toluene or acetonitrile for more than 15 hrs at room temperature; for Form conversion or dissociation: slurry in heptane
Procedure: Solvent-mediated polymorph transformations are an effective method to measure the physical stability for both metastable and thermodynamically stable polymorphs. This study is carried out by slurring 1 g of Form γ, amorphous and literature Form α of Perindopril (L)-Arginine salt in different solvents at 25 to 30° C. for several hours. The solid samples are then characterized by PXRD (example 10, Table 6).
1 g of Perindopril (L)-Arginine salt is suspended in appropriate solvents at different temperature and stirred for 12 hours to afford form γ of Perindopril (L)-Arginine.

[3] = Solid state stability at accelerated stress conditions (40° C./75% relative humidity); format: physicochemical; conditions: 40° C./75% RH
Procedure: The present invention is to provide Perindopril (L)-Arginine (γ) form having the degree of crystallinity under 60%, which has enhanced stability to heat and humidity. According to the present invention, the obtained Perindopril (L)-Arginine (γ) form is subjected to accelerated stability at 40° C. and relative humidity (RH) 75%.
The samples were tested by PXRD, Karl-Fisher titrator and HPLC for final purity and degradation products.

[4] = Hygroscopic studies at different relative humidities; format: physicochemical; conditions: stored in different relative humidities for 1 to 3 months
[5] = tablets, temperate-climate countries; cited from earlier work

## CCC[C@H](N[C@@H](C)C(=O)N1[C@H](C(=O)O)C[C@@H]2CCCC[C@@H]21)C(=O)OCC.N=C(N)NCCC[C@H](N)C(=O)O [Amorphous, Perindopril (L)-Arginine]
[1]; Drying at 25° C., 3 hrs
  Results (polymorphic form by PXRD): Form γ
[1]; Humidity (RH >90%), 3 hrs
  Results (polymorphic form by PXRD): Form γ
[1]; Humidity (RH >90%), 3 hrs, listed as amorphous Perindopril Arginine salt
  Results (polymorphic form by PXRD): polymorphic form γ
[1]; in humidity
  Change in form: converted to Form γ
[2]; ACN, volume 10, 25-30 ° C.
  Result (polymorphic form by PXRD after slurry): Form γ
[2]
  Form conversion: converted to form γ

## CCC[C@H](N[C@@H](C)C(=O)N1[C@H](C(=O)O)C[C@@H]2CCCC[C@@H]21)C(=O)OCC.N=C(N)NCCC[C@H](N)C(=O)O [Form α, Perindopril (L)-Arginine]
[1]; Drying at 70° C., 3 days
  Results (polymorphic form by PXRD): Form α
[1]; Drying at 100° C., 7 days
  Results (polymorphic form by PXRD): Form α
[1]; Humidity (RH >90%), 15 hrs
  Results (polymorphic form by PXRD): Form γ
[1]; in humidity
  Change in form: converted to Form γ
[2]; ACN, volume 5, 25-30 ° C.
  Result (polymorphic form by PXRD after slurry): Form γ
[2]; ACN, volume 5, 70-80 ° C.
  Result (polymorphic form by PXRD after slurry): Form γ
[2]; Toluene, volume 5, 25-30 ° C.
  Result (polymorphic form by PXRD after slurry): Form γ
[2]; n-heptane, volume 5, 25-30 ° C.
  Result (polymorphic form by PXRD after slurry): Form α
[2]
  Form conversion or dissociation: No discernible form conversion or dissociation
  Form conversion: converted to form γ

## CCC[C@H](N[C@@H](C)C(=O)N1[C@H](C(=O)O)C[C@@H]2CCCC[C@@H]21)C(=O)OCC.N=C(N)NCCC[C@H](N)C(=O)O [Form γ, Perindopril (L)-Arginine]
[3]; After 1 month
  PXRD: Same as initial
  Purity (%) (HPLC): 99.2%
  m/c (%) (moisture content, Karl-Fisher): 4.4%
[3]; After 2 months
  PXRD: Same as initial
  Purity (%) (HPLC): 99.1%
  m/c (%) (moisture content, Karl-Fisher): 5.0%
[3]; After 15 days
  PXRD: Same as initial
  Purity (%) (HPLC): 99.2%
  m/c (%) (moisture content, Karl-Fisher): 4.2%
[3]; Initial
  PXRD: Form γ
  Purity (%) (HPLC): 99.1%
  m/c (%) (moisture content, Karl-Fisher): 3.8%
[3]; accelerated stability
  Chemical and physical stability: chemically and physically very stable
  Degradation in HPLC: no degradation
  Increase in moisture content: no substantial increase
[1]; Drying at 70° C., 3 days
  Results (polymorphic form by PXRD): Form γ
[1]; Drying at 100° C., 7 days
  Results (polymorphic form by PXRD): Form γ
[1]; Humidity (RH >90%), 15 hrs
  Results (polymorphic form by PXRD): Form γ
[1]; both drying and humid conditions
  Change in form: no change in form
[4]
  Increase in moisture content: no substantial increase in moisture content
[2]; ACN, volume 10, 80 ° C.
  Result (polymorphic form by PXRD after slurry): Form v
[2]; Toluene, volume 10, 110 ° C.
  Result (polymorphic form by PXRD after slurry): Form γ
[2]; conclusion from stability and slurry observations
  Relative thermodynamic stability: thermodynamically more stable than Perindopril (L)-Arginine amorphous and form α
[2]; n-heptane, volume 10, 60-80 ° C.
  Result (polymorphic form by PXRD after slurry): Form γ
[2]
  Form conversion or dissociation: No discernible form conversion or dissociation

## CC(C)(C)N.CCC[C@H](N[C@@H](C)C(=O)N1[C@H](C(=O)O)C[C@@H]2CCCC[C@@H]21)C(=O)OCC [Perindopril tert-butylamine salt]
[5]
  Shelf-life: ≤ 2 years
